CN1CC(O)c2cc(N=NC(N)=O)c(O)cc21 (centres undefined)
solubility (mole fraction)
Conditions	278.15 K	283.15 K	288.15 K	293.15 K	298.15 K	303.15 K	308.15 K	313.15 K	318.15 K
in DMF	0.00095	0.00115	0.00129	0.0015	0.00177	0.00202	0.00231	0.00277	0.00335
in DMSO	0.00619	0.0073	0.00863	0.01	0.0113	0.0129	0.0146	0.0159	0.0174
in ethanol	1.8e-05	2.15e-05	2.42e-05	3.02e-05	3.67e-05	4.29e-05	5.24e-05	6.97e-05	8.54e-05
in methanol	3.56e-05	4.38e-05	5.31e-05	6.89e-05	8.35e-05	9.97e-05	0.00012	0.000147	0.000173
in n-propanol	1.75e-05	2.05e-05	2.41e-05	2.77e-05	3.18e-05	3.66e-05	4.5e-05	5.92e-05	7.31e-05
in water	2.81e-05	3.26e-05	3.78e-05	4.4e-05	5.15e-05	6.03e-05	6.87e-05	7.98e-05	9.69e-05

— BigSolDB 2.1
